The text below walks through data of US7812172B2, “Thiazolothiazole derivative” (Fuji Xerox Co., Ltd., priority 2008, dated 2010).

This series is described as follows: Evaluation of solubility of thiazolothiazole derivatives in organic solvents. The following applies: for solubility: organic solvent or mixture, thermodynamic from solid, 25° C., else heated to boiling temperature, naked eye. In kind it is physicochemical. How it is done: In the present exemplary embodiment, the term “dissolve” refers to a state in which, after the thiazolothiazole derivative according to the present exemplary embodiment is added to an organic solvent, no crystal is observed by observation with the naked eye. The term “high solubility” or “good solubility” refers to such properties that the thiazolothiazole derivative dissolves at the boiling temperature of the organic solvent.
The solubility test is performed as follows:
10 mg (1.0 weight %) of an exemplary compound to be tested is dissolved in 1 ml of a solvent (such as dichlorobenzene, monochlorobenzene, chloroform, THF, toluene or xylene). […] The degree of dissolution is observed with the naked eye.
A: dissolves even when heating is not conducted
B: completely dissolves when heating is conducted
C: a large proportion thereof dissolves when heating is conducted
D: a small proportion thereof dissolves when heating is conducted

Setting [1] is: 10 mg (1.0 weight %) in 1 ml THF, read-out: Solubility THF.
The mark [2] stands for this setting: 10 mg (1.0 weight %) in 1 ml chloroform, read-out: Solubility Chloroform.
Where [3] appears, read: 10 mg (1.0 weight %) in 1 ml dichlorobenzene, read-out: Solubility Dichlorobenzene.
Where [4] appears, read: 10 mg (1.0 weight %) in 1 ml monochlorobenzene, read-out: Solubility Monochlorobenzene.
Where [5] appears, read: 10 mg (1.0 weight %) in 1 ml toluene, read-out: Solubility Toluene.
The mark [6] stands for this setting: 10 mg (1.0 weight %) in 1 ml xylene, read-out: Solubility Xylene.

Read-outs that look alike come from different tables or passages of the source.

For `CCCCc1ccc(-c2ccc(-c3nc4sc(-c5ccc(-c6ccc(CCCC)cc6)s5)nc4s3)s2)cc1` [Exemplary Compound (1)], the solubility under setting [1] is below 10000 µg/mL; the solubility under setting [2] was below 10000 µg/mL; the solubility under setting [3] was below 10000 µg/mL; the solubility under setting [4] was below 10000 µg/mL; the solubility under setting [5] is below 10000 µg/mL; the solubility under setting [6] was below 10000 µg/mL.

On to `CCCCCCCCc1ccc(-c2cc(CCCCCCCC)c(-c3nc4sc(-c5sc(-c6ccc(CCCCCCCC)cc6)cc5CCCCCCCC)nc4s3)s2)cc1` [Exemplary Compound (27)], for which the solubility was above 10000 µg/mL under setting [1]; above 10000 µg/mL under setting [2]; above 10000 µg/mL under setting [3]; above 10000 µg/mL under setting [4]; above 10000 µg/mL under setting [5]; above 10000 µg/mL under setting [6].

Consider `CCCCOc1ccc(-c2ccc(-c3nc4sc(-c5ccc(-c6ccc(OCCCC)cc6)s5)nc4s3)s2)cc1` [Exemplary Compound (11)], for which the solubility was below 10000 µg/mL under setting [1]; below 10000 µg/mL under setting [2]; below 10000 µg/mL under setting [3]; below 10000 µg/mL under setting [4]; below 10000 µg/mL under setting [5]; below 10000 µg/mL under setting [6].

Turning to `CC(C)(C)c1ccc(-c2ccc(-c3nc4sc(-c5ccc(-c6ccc(C(C)(C)C)cc6)s5)nc4s3)s2)cc1` [Exemplary Compound (15)], the solubility was below 10000 µg/mL under setting [1]; below 10000 µg/mL under setting [2]; below 10000 µg/mL under setting [3]; below 10000 µg/mL under setting [4]; below 10000 µg/mL under setting [5]; below 10000 µg/mL under setting [6].

For the molecule `c1csc(-c2ccc(-c3nc4sc(-c5ccc(-c6cccs6)s5)nc4s3)s2)c1` [Compound 3, reference compound], the solubility under setting [1] was below 10000 µg/mL; the solubility under setting [2] was below 10000 µg/mL; the solubility under setting [3] was below 10000 µg/mL; the solubility under setting [4] was below 10000 µg/mL; the solubility under setting [5] is below 10000 µg/mL; the solubility under setting [6] was below 10000 µg/mL. Further, the “Solubility in organic solvents (in words)” value (organic solvents, general statement) is on record as “hardly dissolves”.

As to `CCCCCCCCc1ccc(-c2cc(C)c(-c3nc4sc(-c5sc(-c6ccc(CCCCCCCC)cc6)cc5C)nc4s3)s2)cc1` [Exemplary Compound (8)], the solubility runs as follows: under setting [1], above 10000 µg/mL; under setting [2], below 10000 µg/mL; under setting [3], above 10000 µg/mL; under setting [4], above 10000 µg/mL; under setting [5], below 10000 µg/mL; under setting [6], below 10000 µg/mL.

As for `CCCCCCCCc1cc(-c2ccc(CCCC)cc2)sc1-c1nc2sc(-c3sc(-c4ccc(CCCC)cc4)cc3CCCCCCCC)nc2s1` [Exemplary Compound (25)], the solubility under setting [1] was above 10000 µg/mL; the solubility under setting [2] is above 10000 µg/mL; the solubility under setting [3] is above 10000 µg/mL; the solubility under setting [4] is above 10000 µg/mL; the solubility under setting [5] was above 10000 µg/mL; the solubility under setting [6] is above 10000 µg/mL.

For `CCCCCCCCCCCCc1ccc(-c2cc(CCCCCCCC)c(-c3nc4sc(-c5sc(-c6ccc(CCCCCCCCCCCC)cc6)cc5CCCCCCCC)nc4s3)s2)cc1` [Exemplary Compound (28)], the solubility is, setting by setting: under setting [1], above 10000 µg/mL; under setting [2], above 10000 µg/mL; under setting [3], above 10000 µg/mL; under setting [4], above 10000 µg/mL; under setting [5], above 10000 µg/mL; under setting [6], above 10000 µg/mL.
